Laboratory results as given in ChEMBL document CHEMBL1201862, “PubChem BioAssay data set” (2004).
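In this assay, cells in 96-well plates receive the compound at five concentrations for 48 hours. Endpoints are linearly interpolated between the surrounding concentrations. GI50: concentration for 50% inhibition of growth.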 Calls of active or inactive are those of the source. No stated cut-off is given here; in the data, active = GI50 up to about 1.1 µM and inactive = higher.

Assays:
Assay in all cases: DTP human tumour cell line panel, 48 h
[1] = system: KM12
[2] = system: IGROV-1
[3] = system: HL-60
[4] = system: DU-145
[5] = system: RXF 393
[6] = system: EKVX
[7] = system: TK-10
[8] = system: NCI-H226
[9] = system: 786-0
[10] = system: BT-549
[11] = system: LXFL 529
[12] = system: CCRF-CEM
[13] = system: SF-539
[14] = system: A549
[15] = system: UACC-257
[16] = system: HCT-116
[17] = system: LOX IMVI
[18] = system: ACHN
[19] = system: HCT-15
[20] = system: HOP-18

SMILES | GI50 [1] | GI50 [2] | GI50 [3] | GI50 [4] | GI50 [5] | GI50 [6] | GI50 [7] | GI50 [8] | GI50 [9] | GI50 [10] | GI50 [11] | GI50 [12] | GI50 [13] | GI50 [14] | GI50 [15] | GI50 [16] | GI50 [17] | GI50 [18] | GI50 [19] | GI50 [20]
Cn1c(=O)nc2n(-c3ccc(Cl)cc3)c3cc(Cl)ccc3nc-2c1=O | 5.52 µM (inactive) | 1.6 µM (inactive) | 2.06 µM (inactive) | 15.6 µM (inactive) | 4.45 µM (inactive) | 8.85 µM (inactive) | 20 µM (inactive) | 25.8 µM (inactive) | 10.5 µM (inactive) | 4.12 µM (inactive) | 1.7 µM (inactive) | 5.82 µM (inactive) | 16.5 µM (inactive) | 12.9 µM (inactive) | 1.82 µM (inactive) | 3.92 µM (inactive) | 2.03 µM (inactive) | 12.6 µM (inactive) | 1.82 µM | 14.9 µM (inactive)
CCc1nc(N)nc(N)c1-c1ccc(Cl)c(N=[N+]=[N-])c1 | 8.63 µM (inactive) | – | – | 12.4 µM (inactive) | – | 5.21 µM (inactive) | – | 28.4 µM (inactive) | 3.8 µM (inactive) | – | 6.24 µM (inactive) | – | 4.65 µM (inactive) | – | – | 1.19 µM (inactive) | 3.26 µM (inactive) | – | – | 0.916 µM (active)
COc1ccc(OC)c2c(C(=O)O)c(C(C)c3ccccc3)ccc12 (centres undefined) | > 100 µM (inactive) | > 100 µM (inactive) | > 100 µM (inactive) | – | > 100 µM (inactive) | > 100 µM (inactive) | > 100 µM (inactive) | > 100 µM (inactive) | > 100 µM (inactive) | – | > 100 µM (inactive) | > 100 µM (inactive) | – | > 100 µM (inactive) | > 100 µM (inactive) | > 100 µM (inactive) | > 100 µM (inactive) | > 100 µM (inactive) | > 100 µM | > 100 µM (inactive)
CCN(CC)Cc1cc(Nc2c3ccccc3nc3c4ccccc4n(C)c23)ccc1O | 7.73 µM (inactive) | 15.4 µM (inactive) | 3.46 µM (inactive) | – | 11.3 µM (inactive) | 15.6 µM (inactive) | 13.9 µM (inactive) | 29.2 µM (inactive) | 3.76 µM (inactive) | – | 4.8 µM (inactive) | 2.05 µM (inactive) | 3.87 µM (inactive) | 12.9 µM (inactive) | 10.4 µM (inactive) | 7.16 µM (inactive) | 2.83 µM (inactive) | 11.2 µM (inactive) | 8.85 µM | 14.1 µM (inactive)
COC(=O)C(C(=O)C(=O)Nc1ccc(Br)cc1)c1nc2ccc(Cl)cc2nc1O (centres undefined) | > 66.5 µM (inactive) | > 100 µM (inactive) | > 83.2 µM (inactive) | – | > 100 µM (inactive) | > 100 µM (inactive) | > 100 µM (inactive) | 61 µM (inactive) | > 100 µM (inactive) | – | > 100 µM (inactive) | > 90.2 µM (inactive) | > 100 µM (inactive) | > 100 µM (inactive) | > 100 µM (inactive) | > 100 µM (inactive) | > 76.7 µM (inactive) | > 91.8 µM (inactive) | > 41.2 µM | > 100 µM (inactive)
CC(N)C(=O)OCN1C(=O)C2C3C=CC(C2C1=O)C1C2C(=O)N(COC(=O)C(C)N)C(=O)C2C31 (centres undefined) | 20.3 µM (inactive) | 33.8 µM (inactive) | 29.8 µM (inactive) | – | 22.2 µM (inactive) | > 100 µM (inactive) | 71.6 µM (inactive) | 39.8 µM (inactive) | 20.8 µM (inactive) | – | 26.4 µM (inactive) | 23.1 µM (inactive) | 22.9 µM (inactive) | 32.9 µM (inactive) | 31.4 µM (inactive) | 24.2 µM (inactive) | 18.5 µM (inactive) | 27.7 µM (inactive) | 19.9 µM | > 100 µM (inactive)
COc1ccc2oc3cccc(NCCN(C)C)c3c(=O)c2c1 | 13.1 µM (inactive) | 16.6 µM (inactive) | 9.68 µM (inactive) | – | 13.2 µM (inactive) | 15 µM (inactive) | 14.8 µM (inactive) | 16.2 µM (inactive) | 10.9 µM (inactive) | – | 13.1 µM (inactive) | 11.9 µM (inactive) | 14.3 µM (inactive) | 14.2 µM (inactive) | 16.3 µM (inactive) | 7.01 µM (inactive) | 10.6 µM (inactive) | 10.5 µM (inactive) | 13.7 µM | 11.6 µM (inactive)
